From patent US6951833B2, “Anti-microbial compositions” (priority 2002, dated 2005)

Tests used:
LD50 in a mouse = settings: in vivo, read-out: dosage reaching the LD50 limit
Description: The upper limit of the amount of the composition of the present invention will depend upon how the extract is made and may be determined by the levels at which toxicity or irritation becomes an issue. Thus, for surface cleansers, very high concentrations can be employed, whereas for skin cleansers, oral care or other products used for direct contact with humans or animals, lower concentrations will be desirable to avoid irritation or toxicity issues. […] Use of the term, “safe amount” herein refers to concentrations which are sufficiently below the above-mentioned amounts to avoid toxic effects in humans or animals.

[1] = system: a variety of common bacteria; assay: bactericidal amounts for common bacteria; type: cell-based
Description: The composition of the present invention is preferably used in amounts that deliver at least about 2 ppm of anemonin, protoanemonin, diterpenoid alkaloids, or combinations thereof, more preferably, at least about 5 ppm of anemonin, protoanemonin, diterpenoid alkaloids, or combinations thereof, and most preferably at least about 15 ppm of anemonin, protoanemonin, diterpenoid alkaloids, or combinations thereof.

| Compound | LD50 (LD50 in a mouse) [mg/kg] | amount that is generally bactericidal [1] |
| --- | --- | --- |
| O=C1C=CC2(CCC23C=CC(=O)O3)O1 (stereo not drawn) [anemonin] | 150 |  |
| C=C1C=CC(=O)O1 [protoanemonin] | 190 | 25-200 ppm |
